The nature of data set [1]: Metabolic stability in rat liver microsomes. To be noted: 37° C., NADPH. Format: in vitro ADME. On the procedure: (§1) The metabolic stability in relation to liver microsomes (species human, rat) was determined in accordance with the following description: the substances were incubated at a test concentration of 1 […] An HPLC MS/MS method was subsequently used to quantify the unmetabolized amount of starting compound relative to 100%.

The nature of data set [2]: Metabolic stability in human liver microsomes. The data set is classed as in vitro ADME. Conditions: 37° C., NADPH. As for the experimental part: as §1
For orientation: Microsomes from liver hold many membrane-bound enzymes, among them those of drug oxidation.

A further data set relates to castrated rats. In words: LH concentration suppression in the plasma of castrated rats. Format: in vivo, rat. To be noted: 19 mg/kg oral in Solutol HS15/1,2-propane-diol (3:1). As for the experimental part:
The LH concentration in the plasma of castrated rats was measured using the rat luteinizing hormone (rLH) enzyme immunoassay (EIA) system ELISA (RPN 2562) from Amersham Pharmacia Biotech or of LH RIA-AH R002 rats; from Biocode-Hycel, Liege, Belgium. All other chemicals used were from commercial sources in the highest purity available.
10 days before the start of the test, male Sprague Dawley rats (Harlan Winkelmann, Germany) weighing 190-220 g were anesthetized with ether and castrated and provided with a silicone catheter for permanent blood sampling.
At the start of the test, before administration of the substance, blood samples were taken and the LH level determined. The substance was then administered orally in the desired concentration. The number of animals used in each group was 8. At the stated times, further blood samples were taken. The blood was collected in heparinized sample tubes on ice, and the plasma was obtained by centrifugation at 3000 g for 10 minutes. The plasma samples were stored at −20° C. until the LH concentration was measured by ELISA or RIA. The LH concentration was determined by an ELISA or RIA in duplicate determination in accordance with the manufacturer's (Amersham Pharmacia Biotech; Biocode-Hycel) instructions.
All the other data points for each individual animal were calculated as relative concentration compared with the LH concentration before treatment.

The target of another data set is T1, NK2 (h) (Homo sapiens, UniProt P21452).
T1 construct: Cerep Assay 826-2h
T1 sequence (P21452 1-398): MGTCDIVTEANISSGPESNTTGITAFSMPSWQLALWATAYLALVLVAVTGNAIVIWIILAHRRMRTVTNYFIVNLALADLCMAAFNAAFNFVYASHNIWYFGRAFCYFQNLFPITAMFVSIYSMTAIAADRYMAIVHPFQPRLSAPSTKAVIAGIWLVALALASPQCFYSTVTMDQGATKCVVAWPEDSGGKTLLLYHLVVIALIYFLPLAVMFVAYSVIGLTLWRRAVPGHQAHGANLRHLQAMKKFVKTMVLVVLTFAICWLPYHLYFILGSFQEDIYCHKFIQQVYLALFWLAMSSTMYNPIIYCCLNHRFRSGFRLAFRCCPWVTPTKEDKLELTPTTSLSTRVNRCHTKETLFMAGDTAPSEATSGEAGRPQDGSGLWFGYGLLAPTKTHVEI
The experiment in a line: NK2 receptor-ligand binding assay (Cerep). To be noted: for nH: Hill coefficient of competition plot; for IC50 / Ki: ligand [Nle10]-NKA(4-10). On the procedure: (§2) Receptor affinities (IC50 values) of the compounds of the invention of the general formulae (I, Ia and Ib) were measured as described by E. Heuillet et al., J. Neurochem., 60: 868-876 (1993) and D. Aharony et al. Mol. Pharmacol, 44: 356-363 (1993) commercially by Cerep (Assay 826-1h on page 67 and Assay 826-2h on page 68 of the 2005 catalogue).
(§3) FIGS. 8-11 show competition plots measured in the NK1 and NK2 receptor-ligand binding assays with [Sar^9, Met(O2)^11]-SP for NK1 and [Nle^10]-NKA(4-10) for NK2, and the selected substances (68 and 76).

The target of a further data set is T2, NK1 (h) (Homo sapiens, UniProt P25103).
T2 construct: Cerep Assay 826-1h
The experiment in a line: NK1 receptor-ligand binding assay (Cerep). Conditions: for nH: Hill coefficient of competition plot; for IC50 / Ki: ligand [Sar9, Met(O2)11]-SP. On the procedure:
as §2, §3

The target of data set [3] is T3, LHRH receptor (Rattus norvegicus, UniProt P30969).
T3 construct: rat pituitary cells which naturally strongly express the LHRH receptor; from tissue; host or cells: rat pituitary cells (membrane preparation)
T3 sequence (P30969 1-327): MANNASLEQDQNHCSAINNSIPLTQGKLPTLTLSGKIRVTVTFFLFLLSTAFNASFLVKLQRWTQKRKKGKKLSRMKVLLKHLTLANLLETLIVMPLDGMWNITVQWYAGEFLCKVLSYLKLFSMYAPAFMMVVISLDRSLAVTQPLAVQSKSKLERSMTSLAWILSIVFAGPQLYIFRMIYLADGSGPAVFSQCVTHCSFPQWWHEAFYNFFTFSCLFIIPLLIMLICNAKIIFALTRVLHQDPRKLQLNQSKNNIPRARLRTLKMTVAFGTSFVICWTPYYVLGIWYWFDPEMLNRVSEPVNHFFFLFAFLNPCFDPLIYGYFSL
The experiment in a line: LHRH receptor-ligand binding assay (membrane preparations from rat pituitary cells). To be noted: competition with 0.05 nM [125I][D-Trp6]-LHRH, 90 min, 4° C., rat pituitary membranes. On the procedure:
Heterologous competition experiments were carried out using membrane preparations from rat pituitary cells which naturally strongly express the LHRH receptor. The ligand used in this case was [^125I][D-Trp^6]-LHRH in a concentration of 0.05 nM. Unlabeled [D-Trp^6]-LHRH was used in a concentration of 1 μM, or the test substance was used in the desired concentration, for competition. After an incubation time of 90 minutes at 4° C., the bound ligand was measured by scintillation (Halmos et al., Proc. Natl. Acad. Sci. USA, 1996, 93, 2398).
The result obtained was the percentage proportion of bound ligand in the presence of the competitor related to the specifically bound proportion of the control (see result for selected compounds in Table 3). EC50 values were calculated by nonlinear regression analysis of the competition plots.

The nature of data set [4]: Saturation solubility in water. The data set is classed as physicochemical. To be noted: water, thermodynamic from solid; maximum of 1% DMSO added, HPLC UV. As for the experimental part:
The saturation solubility in water was determined in accordance with the following description: to initiate dissolving of the substances and to improve the wetting of the samples, a maximum of 1% DMSO was added. The content was checked by using an HPLC UV method.

Data set [5] addresses LHRH receptor (Homo sapiens, UniProt P30968). To be noted: prior art, N. Cho et al. J. Med. Chem. 41, 4190-4195 (1998); cited from earlier work.
For data set [6] the following is noted: in vivo; cited from earlier work.

T2 sequence (P25103 whole entry): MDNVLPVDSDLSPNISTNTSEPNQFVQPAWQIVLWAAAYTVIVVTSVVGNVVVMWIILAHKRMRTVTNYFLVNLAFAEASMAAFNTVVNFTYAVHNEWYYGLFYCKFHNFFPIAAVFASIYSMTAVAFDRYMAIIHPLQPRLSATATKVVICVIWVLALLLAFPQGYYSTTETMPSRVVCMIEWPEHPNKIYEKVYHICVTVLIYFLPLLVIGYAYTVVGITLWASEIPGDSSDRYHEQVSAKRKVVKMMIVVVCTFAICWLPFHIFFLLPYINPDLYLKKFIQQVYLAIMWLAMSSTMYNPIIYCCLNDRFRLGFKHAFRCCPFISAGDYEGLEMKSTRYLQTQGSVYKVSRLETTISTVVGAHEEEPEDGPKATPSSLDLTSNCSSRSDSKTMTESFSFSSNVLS
Sequence of LHRH receptor (Homo sapiens, UniProt P30968) (P30968 whole entry): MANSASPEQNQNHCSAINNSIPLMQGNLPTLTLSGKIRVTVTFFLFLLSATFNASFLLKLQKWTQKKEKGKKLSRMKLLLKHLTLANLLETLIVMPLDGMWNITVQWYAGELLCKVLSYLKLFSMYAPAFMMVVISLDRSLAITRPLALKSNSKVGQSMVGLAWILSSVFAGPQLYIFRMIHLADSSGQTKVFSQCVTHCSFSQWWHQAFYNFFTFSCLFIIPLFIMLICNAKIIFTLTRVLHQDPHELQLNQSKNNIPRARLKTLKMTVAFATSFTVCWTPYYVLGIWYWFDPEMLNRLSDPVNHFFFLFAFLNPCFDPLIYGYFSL

With `CCC(C)[C@H](NC(=O)[C@@]1(NC(=O)[C@@H](NC(=O)OCc2ccccc2)C(C)CC)CCc2[nH]c3c(OC)cccc3c2C1)C(N)=O` (stereo partly drawn) [Example 294 from WO 03/051837 A2, Benzyl {(S)-1-[(R)-3-((S)-1-carbamoyl-2-methylbutylcarbamoyl)-8-methoxy-2,3,4,9-tetrahydro-1H-carbazol-3-ylcarbamoyl]-2-methylbutyl]carbamate, reference compound], the recovery at 1 μM worked out at 5% in data set [1] and 0% in data set [2].

In the case of `CCC(C)[C@H](NC(=O)Cc1ccccc1F)C(=O)N[C@]1(C(=O)N[C@H](C(N)=S)C(C)CC)CCc2[nH]c3c(Cl)cc(F)cc3c2C1` (stereo partly drawn) [Compound 68, (R)-8-chloro-6-fluoro-3-{(S)-2-[2-(2-fluorophenyl)acetylamino]-3-methylpentanoylamino}-2,3,4,9-tetrahydro-1H-carbazole-3-carboxylic acid ((S)-2-methyl-1-thiocarbamoylbutyl)amide], the results for the recovery at 10 μM in data set [1] and in [2] were 80% and 75%, respectively. Moreover, the “Relative LH concentration (%) (averages ± SEM compared with the concentration before treatment)” value with castrated rats (time 0 h) turned out to be 95.0 ± 9.3%; with castrated rats (time +4 h), 17.4 ± 3.3%; in the data set on castrated rats (time +6 h) it was 16.0 ± 1.5%; with castrated rats (time +8 h), 12.9 ± 1.0%; in the data set with castrated rats (time +12 h) it was 16.0 ± 2.6%; in the data set with castrated rats (time +24 h) it was 65.7 ± 10.8%. The “Relative LH concentration (%) (averages ± SEM compared with the concentration before treatment)” value was 78.1 ± 7.7% in the data set with castrated rats (time +30 h) and 105.4 ± 12.7% with castrated rats (time −24 h (before treatment)). In addition, the values for the nH on NK2 (h) and on NK1 (h) were 3.8 and 2.0, respectively. In addition, the 50% inhibitory concentration (IC50) (usually the concentration needed to halve the response being measured) on NK2 (h) stood at 1600 nM; at NK1 (h), 1400 nM. Also, the figures for the Ki on NK2 (h) and at NK1 (h) were 850 nM and 640 nM, respectively. Further, on LHRH receptor [3], a half-maximal response (EC50) required 1 nM.

For `CCC(C)[C@H](NC(=O)Cc1ccccc1F)C(=O)N[C@]1(C(=O)N[C@H](C(N)=S)C(C)CC)CCc2[nH]c3c(C(F)(F)F)cccc3c2C1` (stereo partly drawn) [Compound 76, (R)-3-{(S)-2-[2-(2-fluorophenyl)acetylamino]-3-methylpentanoylamino}-8-trifluoromethyl-2,3,4,9-tetrahydro-1H-carbazole-3-carboxylic acid ((S)-2-methyl-1-thiocarbamoylbutyl)amide], in data set [1], the recovery at 10 μM was 69%. The molecule also came in with a recovery at 10 μM in [2] of 84%. On NK2 (h), the nH is given as 2.3; the IC50 was 1500 nM; the Ki – broadly, a dissociation constant, usually derived from enzyme kinetics or from competition with a known ligand – was found to be 810 nM. At NK1 (h), this molecule came in with a nH of 2.3, an IC50 of 1900 nM and a Ki of 840 nM. It took 0.27 nM to reach a half-maximal effect at LHRH receptor [3] (EC50).

Consider `CCC(C)[C@H](NC(=O)[C@@]1(NC(=O)[C@@H](NC(=O)OCc2ccccc2)C(C)CC)CCc2[nH]c3c(Cl)cc(Cl)cc3c2C1)C(N)=O` (stereo partly drawn) [Example 295 from WO 03/051837 A2, Benzyl {(S)-1-[(R)-3-((S)-1-carbamoyl-2-methylbutylcarbamoyl)-6,8-dichloro-2,3,4,9-tetrahydro-1H-carbazol-3-ylcarbamoyl]-2-methylbutyl]carbamate, reference compound], for which the recovery at 1 μM in [1] and in data set [2] was 0% each time. Further, in data set [4], the solubility (commonly the concentration that dissolves in the medium under given conditions) was less than 0.05 µg/mL.

With `CC(C)OC(=O)c1cn(Cc2c(F)cccc2F)c2sc(-c3ccc(NC(=O)C(C)C)cc3)c(CN(C)Cc3ccccc3)c2c1=O` [Compound T-98475], at LHRH receptor [5], the receptor affinity entry is given as “high”. Besides, the bioavailability result in [6] is “low”.

Source of the values: patent US8067456B2 (AEterna Zentaris GmbH, priority 2004, dated 2011).
